{"source": "patent US20200163962A1", "about": "“PHARMACEUTICAL COMPOSITION OF NILOTINIB” (SUN PHARMACEUTICAL INDUSTRIES LTD., priority 2016, published 2020)", "origin": "cited, not measured here", "key": {"[1]": {"details": "particularly the hydrochloride"}, "[2]": {"details": "ingested with or after meals, particularly high fat meals"}}}
{"smiles": "Cc1cn(-c2cc(NC(=O)c3ccc(C)c(Nc4nccc(-c5cccnc5)n4)c3)cc(C(F)(F)F)c2)cn1", "note": "[Nilotinib, 4-methyl-N-[3-(4-methyl-1H-imidazol-1-yl)-5-(trifluoromethyl)phenyl]-3-[[4-(3-pyridinyl)-2-pyrimidinyl]amino]-benzamide]", "values": [{"measurement": "increase of systemic exposure (AUC) compared to the fasted state", "setting": "dose given 30 minutes after a high fat meal", "value": 82, "unit": "%"}, {"measurement": "increase of Cmax with food", "setting": "[2]", "value": 112, "unit": "%"}, {"measurement": "increase of area under the plasma profile curve with food", "setting": "[2]", "value": 82, "unit": "%"}, {"measurement": "water solubility", "setting": "[1]", "value": "poorly water soluble"}]}
